Test results taken from patent US11771707B2, “Pharmaceutical compositions and uses thereof” (SpineThera, priority 2016, dated 2023).

Key:
[1] = in vitro release in 1% C-TAB buffer at pH 3.5; format: physicochemical
Excerpt: Without wishing to be bound by theory, pharmaceutical compositions of the type described herein are not expected to elicit any significant or appreciable degree of inflammatory response or cause necrosis. Histological examination may reveal the microspheres to be localized and agglomerated within the epidural space at the site of injection with no evidence of the presence of the injection vehicle after about 2 days. Contents of the treated epidural pocket can be recovered by dissection. It can be reasonably expected that dexamethasone acetate will be released continuously over approximately 45 days under in vitro conditions of 1% C-TAB buffer at pH 3.5, with <20% of the drug released in 1 day, 30-60% in 7 days, 60-85% in 28 days and not less than 85% in 45 days, with complete microsphere polymer degradation in about 16 weeks/112 days.

[2] = brain; cited from earlier work
[3] = in vitro release of dexamethasone acetate from microspheres; format: physicochemical
Description: The microspheres, and compositions comprising those microspheres, of the various embodiments described herein are analyzed using USP methods known in the art to determine, among other things, the pH of the compositions, the in vitro release of API, and the impurities present. […] Without wishing to be bound by theory, it can be reasonably expected that dexamethasone acetate will release continuously over about 84 days in vitro, with about 20% of the drug released in 3 days, 50% in 25 days, and 90% in 60 days. It will be understood that the release profile may be adjusted by one or more of the following, including combinations: increasing or decreasing drug to polymer ratio; increasing or decreasing polymer molecular weight; increasing or decreasing particle size; increasing or decreasing polymer degradation time (by decreasing or increasing glycolic acid content); or increasing or decreasing hydrophilicity of microsphere surface.

- period of continuous release ([1]; 1% C-TAB buffer pH 3.5): approximately 45 days
- drug released ([1]; 1% C-TAB buffer pH 3.5, in 1 day): < 20%
- drug released ([1]; 1% C-TAB buffer pH 3.5, in 7 days): 30-60%
- drug released ([1]; 1% C-TAB buffer pH 3.5, in 28 days): 60-85%
- drug released ([1]; 1% C-TAB buffer pH 3.5, in 45 days): not less than 85%
- period of continuous release [3]: about 84 days
- drug released ([3]; in 3 days): about 20%
- drug released ([3]; in 25 days): ~50%
- drug released ([3]; in 60 days): ~90%
Structure (SMILES): CC(=O)OCC(=O)[C@@]1(O)[C@H](C)C[C@H]2[C@@H]3CCC4=CC(=O)C=C[C@]4(C)[C@@]3(F)[C@@H](O)C[C@@]21C [dexamethasone acetate, 9 alpha-fluoro-11-beta, 17-alpha, 21-trihydroxy-16 alpha-methylpregna-1,4-diene-3,20-dione 21-acetate]
- anti-inflammatory effect and tissue water content [2]: anti-inflammatory effect in the brain without reducing tissue water content
